Results as given in patent publication US9289414B2 (priority 2004, dated 2016).

Columns and labels:
SVR cells = assay: SVR cell proliferation / viability bioassay (angiogenic bioassay); type: cell-based, murine; conditions: FIG. 1
Description: Liquid extract of coal tar was concentrated under vacuum to get crude extract (20.0 mg). This extract was applied on a Sephadex LH 20 (3.0×100 cm) column and eluted with MeOH. The elution was monitored by TLC and similar fractions are combined to get 11 fractions. This fraction was assayed for inhibition of SVR cell viability (Arbiser et al. (1999) J. Am. Acad. Dermatol. 40, 925-929; and Bai et al. (2003) J. Biol. Chem. 278, 35501-35507). […] These changes are similar to what is observed when SVR cells are treated with an EGFR tyrosine kinase inhibitor.
Coal tar fractions were tested for their ability to inhibit the proliferation of SVR cells, an established angiogenic bioassay.

EGFR = assay: Drosophila EGFR eye phenotype assay; type: in vivo, Drosophila melanogaster; conditions: treatment of mutant Drosophila
Description: The epidermal growth factor receptor pathway controls cell fate throughout phylogeny. Binding of secreted ligands to EGFR on the cell surface initiates a cascade of events that ultimately invokes transcriptional changes in the nucleus. Ligand/receptor interactions are of critical importance during Drosophila eye development, as recruitment and differentiation of almost all photoreceptors are dependent on high levels of activation of the EGFR pathway. Binding of activating ligand to EGFR results in a cascade of membranous and cytoplasmic phosphorylation events.
(§1) In order to test whether carbazole and its derivatives affect EGFR, the compounds were tested using a novel EGFR assay that is amenable to high throughput screening.

Drosophila embryos = assay: Normal development of Drosophila embryos; set-up: species or system Drosophila melanogaster; conditions: in vivo
Description: as §1

interleukin-15 (IL-15) = assay: IL-15 production by PSK-activated mononuclear cells; type: cell-based, human; conditions: PSK-stimulated mononuclear cells, FIG. 2A
Description: Cytokine production by mononuclear cells plays an important role in psoriasis. One of the cardinal cytokines involved in the pathogenesis of psoriasis is interleukin-15 (IL-15). IL-15 plays several roles that may be important in psoriasis. […] In addition, IL-15 is angiogenic in vivo.

[1] = system: signaling lymphocyte activator molecule associated protein (SAP); assay: PSK-induced SAP expression in lymphocytes; type: cell-based, human; conditions: FIG. 2B
iNOS = iNOS expression, in vitro translation and Western blot of HEK293 and RAW264.7 cells; type: cell-based; conditions: FIG. 3A-C
Description: Reactions were performed at 30° C. for 90 min. Translation products were separated by SDS/PAGE, and bands, representing ^35S-labeled iNOS, were detected by Phosphoimager (Molecular Dynamics). The data shown in FIG. 3A represent two independent experiments done in duplicates.
Transfection and stable cell line production of HEK293 cells was performed by cationic lipid-mediated transient transfection using “LipofectAMINE 2000” (Invitrogen) following manufacturer's instructions. Stable cell line expressing iNOS, were produced by using transfection of iNOS cDNA followed by positive colony selection using G418 (Invitrogen) at concentration of 600 μg/ml. iNOS Induction of mouse macrophages RAW264.7, involved incubating the cells with a mixture of mouse interferon (mIFN)-γ (10 u/ml) and LPS (100 ng/ml).
Cell lysis was performed on collected cells. After gently rinsing the cells twice with phosphate-buffered saline, the cell layer was lysed on ice for 30 min in 40 mM Bis-Tris propane buffer, pH 7.7, 150 mM NaCl, 10% glycerol, 1% Triton-X100 in the presence of protease inhibitors (phenylmethylsulfonyl fluoride (1 mM), pepstatin-A (10 μg/ml), leupeptin (10 μg/ml), aprotinin (10 μg/ml), phenanthroline (10 μg/ml), benzamidine HCl (16 μg/ml)) (PharMingen). […] Total protein concentrations were determined by using a bicinchoninic acid reagent, following the manufacturer's instructions (Pierce). […]

Rac = Rac activation in HUVEC after VEGF stimulation (PAK-1 PBD pull-down); type: cell-based, human; conditions: carbazole 5 mg/ml pretreatment 1 hr, VEGF 20 ng/ml 5 min, FIG. 5
Description: Cells were lysed with ice-cold lysis buffer, pH 7.5, containing 25 mmol/liter HEPES, 150 mmol/liter NaCl, 1% IGEPAL CA-630, 0.25% sodium deoxycholate, 10 mmol/liter MgCl2, 10% glycerol, 25 mmol/liter NaF, 1 mmol/liter EDTA, 1 mmol/liter sodium orthovanadate, 10 μg/ml leupeptin, 10 μg/ml aprotinin, and 1 mmol/liter phenylmethylsulfonyl fluoride. Activated (GTP-bound) Rac was affinity-precipitated with p21-activated kinase-1 protein binding domain peptide, which binds only to Rac-GTP and not Rac-GDP.
p21-Activated kinase-1 protein binding domain-agarose (7.5 μg/mg cell lysate, Upstate Biotechnology) was added, and the reaction mixture was gently rocked at 4° C. for 60 min. The agarose beads were collected by pulsing for 5 s in a microcentrifuge at 14,000×g, and the beads were washed three times with 0.5 ml of lysis buffer. The agarose beads were resuspended in 40 μl of 1×SDS sample buffer and boiled for 5 min. The supernatant was separated by SDS-PAGE on a 12% gel, and the proteins were transferred to nitrocellulose membrane. After blocking for 1 h in PBS containing 5% nonfat dry milk and 0.1% Tween 20, the membrane was incubated with anti-Rac antibody (1:1000 dilution, Upstate Biotechnology) overnight. After incubation with the secondary antibody, Rac was detected by enhanced chemiluminescence.

Row | Structure (SMILES) | antiproliferative activity (SVR cells) | effect on eye phenotype of mutant Drosophila with active EGFR (EGFR) | effect on normal development of Drosophila embryos (Drosophila embryos) | production of IL-15 (interleukin-15 (IL-15)) | SAP expression [1] | levels of nitric oxide synthase enzyme (iNOS) | rac activation in response to VEGF (Rac)
1 | Oc1ccc2c(c1)[nH]c1ccccc12 [2-hydroxy carbazole, 2-hydroxycarbazole] | more potent antiproliferative activity |  |  |  |  |  | 
2 | c1ccc2c(c1)[nH]c1ccccc12 [carbazole, 9H-Carbazole] | mild antiproliferative activity | correction of the phenotypic defect | no effect | inhibited production of IL-15 | inhibited | without affecting levels of enzyme | blocks rac activation
3 | Oc1cccc2[nH]c3ccccc3c12 [4-hydroxy carbazole, 4-hydroxycarbazole] | more potent antiproliferative activity | correction of the phenotypic defect | no effect |  |  |  | 
4 | Oc1ccc2[nH]c3ccccc3c2c1 [3-hydroxy carbazole, 3-hydroxycarbazole] | more potent antiproliferative activity |  |  |  |  |  | 
